The results in this text go back to patent US20040176431A1, “Antiproliferative 2-(sulfo-phenyl)-aminothiazole derivatives and pharmaceutical compositions, and methods for their use” (Pfizer, Inc., priority 2003, published 2004).

In assay [1] the target is T1, CDK4/cyclin D3 (Homo sapiens, UniProt P11802).
T1 construct: made in house; host or cells: insect cells (baculovirus co-infection)
Kind of assay: Inhibition of CDK4/Cyclin D retinoblastoma kinase activity.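 For % Inhib CDK4/D @ 1 μM: relative to DMSO control wells without compound minus no-enzyme background.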 The settings on record: for inhibition at 0.1 µM / % Inhib CDK4/D @ 0.1 μM: test compound at 0.1 μM; for inhibition at 0.1 µM: read-out: % Inhib CDK4/D @ 0.1 μM; for inhibition at 1 µM / % Inhib CDK4/D @ 1 μM: test compound at 1 μM (head line shifted: 'mM' printed beside 'Structure'); for inhibition at 1 µM: read-out: % Inhib CDK4/D @ 1 μM; for inhibition at 0.03 µM / % Inhib CDK4/D @ 0.03: test compound at 0.03 (unit cell empty, head line shifted; μM); for inhibition at 0.03 µM: read-out: % Inhib CDK4/D @ 0.03. Type of assay: biochemical. An outline of the steps:
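Human CDK4 with truncated cyclin D3 (1-264) from baculovirus-infected insect cells, 5 nM, phosphorylating His-tagged Rb fragment (386-928) with 25 μM [32P/33P]ATP in pH 7.4 HEPES/MgCl2, 2% DMSO, 30° C., 20 min (60 min for tight binders). Filter capture, phosphorimager; apparent Ki from competitive or tight-binding competitive fits.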

Assay [2] concerns HCT-116 cells. Briefly: Inhibition of cell growth (MTT tetrazolium salt assay). Type of assay: cell-based. The settings on record: Homo sapiens; for IC50: read-out: HCT116 IC50; for IC90: read-out: HCT116 IC90. The protocol:
Inhibition of cell growth was measured using the tetrazolium salt assay, which is based on the ability of viable cells to reduce 3-(4,5-dimethylthiazol-2-yl)-2,5-[2H]-diphenyltetrazolium bromide (MTT) to formazan (Mosmann, J. Immunol. Meth., 65, 55-63 (1983)). The water-insoluble purple formazan product was then detected spectrophotometrically. HCT-116 cells were grown in 96-well plates. Cells were plated in the appropriate medium at a volume of 135 μl/well in either McCoy's 5A Medium. Plates were incubated for four hours before addition of inhibitor compounds. Different concentrations of inhibitor compounds were added in 0.5% (v/v) dimethylsulfoxide (15 μL/well), and cells were incubated at 37° C. (5% CO2) for four to six days (depending on cell type). At the end of the incubation, MTT was added to a final concentration of 0.2 mg/mL, and cells were incubated for 4 hours more at 37° C. After centrifugation of the plates and removal of medium, the absorbance of the formazan (solubilized in dimethylsulfoxide) was measured at 540 nm. […] All results were compared to control cells treated only with 0.5% (v/v) dimethylsulfoxide.

T1 sequence (P11802 whole entry): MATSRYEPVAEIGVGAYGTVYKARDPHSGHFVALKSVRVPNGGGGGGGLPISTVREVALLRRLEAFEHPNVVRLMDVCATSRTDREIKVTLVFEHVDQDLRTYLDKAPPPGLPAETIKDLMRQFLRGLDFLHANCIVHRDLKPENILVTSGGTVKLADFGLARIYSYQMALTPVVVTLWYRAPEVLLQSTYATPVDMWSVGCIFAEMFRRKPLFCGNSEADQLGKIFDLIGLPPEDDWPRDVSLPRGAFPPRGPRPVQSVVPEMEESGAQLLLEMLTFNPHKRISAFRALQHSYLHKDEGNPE
T1 sequence (P30281 1-264 partner limits assumed): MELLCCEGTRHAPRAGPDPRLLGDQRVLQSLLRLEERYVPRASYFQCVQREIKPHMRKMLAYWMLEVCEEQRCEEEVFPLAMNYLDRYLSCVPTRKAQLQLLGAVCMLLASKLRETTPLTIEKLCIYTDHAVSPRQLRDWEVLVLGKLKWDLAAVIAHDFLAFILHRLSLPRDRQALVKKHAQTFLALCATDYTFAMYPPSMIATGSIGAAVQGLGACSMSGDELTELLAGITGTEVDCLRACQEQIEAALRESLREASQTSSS

By IC50 is commonly meant the concentration at which inhibition is half-maximal. Usually IC90 stands for the concentration at which the effect reaches the 90% level. For the compound `Nc1nc(Nc2ccc(S(=O)(=O)NCc3ccco3)cc2)sc1C(=O)c1c(F)cccc1F` [Example A(22), 4-[4-Amino-5-(2,6-difluoro-benzoyl)-thiazol-2-ylamino]-N-furan-2-ylmethyl-benzenesulfonamide], the Ki in assay [1] (apparent Ki, Rb fragment substrate) came out at 22 nM. Moreover, in assay [2], the IC50 is 240 nM and the IC90 turned out to be 620 nM.
For `Nc1nc(Nc2ccc(S(N)(=O)=O)cc2)sc1C(=O)c1c(F)cc(F)cc1F` [C(115)*, reference compound], in assay [2], the IC50 is 980 nM and the IC90 was determined as 2100 nM.
In the case of `CN(C)S(=O)(=O)c1ccc(Nc2nc(N)c(C(=O)c3c(F)cccc3F)s2)cc1` [C(109)*, reference compound], in assay [2], the IC50 came to 1600 nM and the IC90 is 3000 nM.
On to `CNS(=O)(=O)c1ccc(Nc2nc(N)c(C(=O)c3c(F)cccc3F)s2)cc1` [C(108)*, reference compound], for which, in assay [2], the IC50 is 400 nM and the IC90 was 1400 nM.
With `COCC[S+]([O-])c1cccc(Nc2nc(N)c(C(=O)c3c(Cl)cccc3Cl)s2)c1` (stereo not drawn) [DD(134)], in assay [1], the inhibition at 0.1 µM came out at 48%, the inhibition at 1 µM was determined as 49.9% and the inhibition at 0.03 µM was found to be 8.4%.
As to `NC(=O)CS(=O)(=O)c1ccc(Nc2nc(N)c(C(=O)c3c(Cl)cccc3Cl)s2)cc1` [DD(221)], in assay [1], the “% Inhib CDK4/D @ 0.1 μM” value came to 21%, the “% Inhib CDK4/D @ 1 μM” value is on record as 17.6% and the “% Inhib CDK4/D @ 0.03” value is reported as −14%.
On to `CN1CCCC1CC[S+]([O-])c1cccc(Nc2nc(N)c(C(=O)c3c(Cl)cccc3Cl)s2)c1` (stereo not drawn) [DD(139)], for which, in assay [1], the inhibition at 0.1 µM turned out to be 53%, the inhibition at 1 µM was 77.6% and the inhibition at 0.03 µM was determined as 17%.
Taken in the same sequence, the figures for `Nc1nc(Nc2cccc(SCC(O)CO)c2)sc1C(=O)c1c(Cl)cccc1Cl` (stereo not drawn) [DD(74)] were 59%, 85.7% and 28%.
Taken in the same sequence, the figures for `Cc1noc(C)c1CSc1ccc(Nc2nc(N)c(C(=O)c3c(Cl)cccc3Cl)s2)cc1` [DD(2)] were 19%, 74% and 37%.
Consider `COC(=O)CSc1cccc(Nc2nc(N)c(C(=O)c3c(Cl)cccc3Cl)s2)c1` [DD(66)], for which, in assay [1], the inhibition at 0.1 µM was determined as 23%, the inhibition at 1 µM amounted to 77.1% and the inhibition at 0.03 µM amounted to 18%.
In the case of `Nc1nc(Nc2cccc(SCC3CCCO3)c2)sc1C(=O)c1c(Cl)cccc1Cl` (stereo not drawn) [DD(58)], in assay [1], the inhibition at 0.1 µM was found to be 23%, the inhibition at 1 µM is 72.7% and the inhibition at 0.03 µM is 11%.
On to `CC(C)=CCS(=O)(=O)c1ccc(Nc2nc(N)c(C(=O)c3c(Cl)cccc3Cl)s2)cc1` [DD(184)], for which, in assay [1], the inhibition at 0.1 µM stood at 9%, the “% Inhib CDK4/D @ 1 μM” value is given as −3.3% and the “% Inhib CDK4/D @ 0.03” value is on record as 1.6%.
For the compound `Nc1nc(Nc2cccc([S+]([O-])CCN3CCOCC3)c2)sc1C(=O)c1c(Cl)cccc1Cl` (stereo not drawn) [DD(159)], in assay [1], the inhibition at 0.1 µM was found to be 25%, the inhibition at 1 µM turned out to be 44% and the inhibition at 0.03 µM amounted to 36%.
For `CC(C)(CO)C[S+]([O-])c1ccc(Nc2nc(N)c(C(=O)c3c(Cl)cccc3Cl)s2)cc1` (stereo not drawn) [DD(120)], in that order: 29%, 57.1% and -34%.
With `COC(=O)CS(=O)(=O)c1ccc(Nc2nc(N)c(C(=O)c3c(Cl)cccc3Cl)s2)cc1` [DD(226)], in assay [1], the “% Inhib CDK4/D @ 0.1 μM” value is 18%, the “% Inhib CDK4/D @ 1 μM” value is given as −3.9% and the “% Inhib CDK4/D @ 0.03” value is −6.3%.
On to `CC(C)OC(=O)CCS(=O)(=O)c1ccc(Nc2nc(N)c(C(=O)c3c(Cl)cccc3Cl)s2)cc1` [DD(198)], for which, in assay [1], the inhibition at 0.1 µM worked out at 9.2%, the inhibition at 1 µM was 5.1% and the inhibition at 0.03 µM is -24%.
On to `Nc1nc(Nc2ccc(SCC3CO3)cc2)sc1C(=O)c1c(Cl)cccc1Cl` (stereo not drawn) [DD(12)], for which, in assay [1], the inhibition at 0.1 µM stood at 19%, the inhibition at 1 µM was determined as 72% and the inhibition at 0.03 µM was 3.9%.
Consider `CCN(CC)C(=O)CSc1ccc(Nc2nc(N)c(C(=O)c3c(Cl)cccc3Cl)s2)cc1` [DD(1)], for which, in assay [1], the inhibition at 0.1 µM was -19%, the inhibition at 1 µM turned out to be 46.9% and the inhibition at 0.03 µM was -34%.
`CC(C)CCOC(=O)CSc1ccc(Nc2nc(N)c(C(=O)c3c(Cl)cccc3Cl)s2)cc1` [DD(31)]: in assay [1], the inhibition at 0.1 µM was 30%, the inhibition at 1 µM is 59.7% and the inhibition at 0.03 µM is 15%.
For `CC1(CSc2cccc(Nc3nc(N)c(C(=O)c4c(Cl)cccc4Cl)s3)c2)CO1` (stereo not drawn) [DD(60)], in that order: 39%, 80.1% and 22%.
Turning to `Nc1nc(Nc2cccc(SCCN3CCCC3)c2)sc1C(=O)c1c(Cl)cccc1Cl` [DD(47)], in assay [1], the inhibition at 0.1 µM is 7.3%, the inhibition at 1 µM is 62.9% and the inhibition at 0.03 µM turned out to be 20%.
For the compound `CCOC(=O)CCS(=O)(=O)c1ccc(Nc2nc(N)c(C(=O)c3c(Cl)cccc3Cl)s2)cc1` [DD(222)], in assay [1], the “% Inhib CDK4/D @ 0.1 μM” value is reported as −11%, the “% Inhib CDK4/D @ 1 μM” value is on record as −11% and the “% Inhib CDK4/D @ 0.03” value is −9%.
For `CCC(CC)CS(=O)(=O)c1ccc(Nc2nc(N)c(C(=O)c3c(Cl)cccc3Cl)s2)cc1` [DD(236)], in assay [1], the inhibition at 0.1 µM was 30%, the inhibition at 1 µM was found to be 1.7% and the inhibition at 0.03 µM was -0.4%.
For the compound `CN(C)CCCSc1cccc(Nc2nc(N)c(C(=O)c3c(Cl)cccc3Cl)s2)c1` [DD(50)], in assay [1], the inhibition at 0.1 µM was determined as 10%, the inhibition at 1 µM was found to be 80.3% and the inhibition at 0.03 µM was 24%.
For `COC(=O)CSc1ccc(Nc2nc(N)c(C(=O)c3c(Cl)cccc3Cl)s2)cc1` [DD(26)], in that order: 65%, 87.5% and 9%.
Taken in the same sequence, the figures for `COc1cccc(C[S+]([O-])c2ccc(Nc3nc(N)c(C(=O)c4c(Cl)cccc4Cl)s3)cc2)c1` (stereo not drawn) [DD(97)] were 36%, 66.8% and -3.5%.
For `Nc1nc(Nc2cccc(SCCO)c2)sc1C(=O)c1c(Cl)cccc1Cl` [DD(69)], in assay [1], the inhibition at 0.1 µM is 41%, the inhibition at 1 µM came to 78.4% and the inhibition at 0.03 µM came out at 16%.
On to `Nc1nc(Nc2ccc(S(=O)(=O)CCN3CCOCC3)cc2)sc1C(=O)c1c(Cl)cccc1Cl` [DD(199)], for which, in assay [1], the inhibition at 0.1 µM came out at 31%, the “% Inhib CDK4/D @ 1 μM” value was 40.5% and the “% Inhib CDK4/D @ 0.03” value is −7.7%.
As for `CC(C)=CC[S+]([O-])c1ccc(Nc2nc(N)c(C(=O)c3c(Cl)cccc3Cl)s2)cc1` (stereo not drawn) [DD(104)], in assay [1], the inhibition at 0.1 µM was found to be 14%, the inhibition at 1 µM was determined as 36.4% and the inhibition at 0.03 µM is -38%.
For the compound `Nc1nc(Nc2ccc(S(=O)(=O)CC3CCCO3)cc2)sc1C(=O)c1c(Cl)cccc1Cl` (stereo not drawn) [DD(218)], in assay [1], the “% Inhib CDK4/D @ 0.1 μM” value is listed as 33%, the “% Inhib CDK4/D @ 1 μM” value is reported as 23.4% and the “% Inhib CDK4/D @ 0.03” value is on record as −12%.
Consider `NC(=O)CSc1cccc(Nc2nc(N)c(C(=O)c3c(Cl)cccc3Cl)s2)c1` [DD(61)], for which, in assay [1], the inhibition at 0.1 µM came out at 57%, the inhibition at 1 µM came to 81.5% and the inhibition at 0.03 µM was 20%.
For `CC(CSc1ccc(Nc2nc(N)c(C(=O)c3c(Cl)cccc3Cl)s2)cc1)CN(C)C` (stereo not drawn) [DD(3)], in that order: 0.2%, 43.6% and 8.1%.
Taken in the same sequence, the figures for `Nc1nc(Nc2ccc([S+]([O-])CC(O)CO)cc2)sc1C(=O)c1c(Cl)cccc1Cl` (stereo not drawn) [DD(114)] were 46%, 77.9% and 16%.
For `Nc1nc(Nc2ccc(SCC3CCCO3)cc2)sc1C(=O)c1c(Cl)cccc1Cl` (stereo not drawn) [DD(18)], in that order: 9.9%, 70.6% and 10%.
Regarding `Nc1nc(Nc2ccc(S(=O)(=O)Cc3ccncc3)cc2)sc1C(=O)c1c(Cl)cccc1Cl` [DD(235)], in assay [1], the inhibition at 0.1 µM came to 27%, the inhibition at 1 µM was 6.9% and the inhibition at 0.03 µM amounted to 7.7%.
